Assay [1] deals with T1, WRN C727 (Homo sapiens, UniProt Q14191).
T1 construct: endogenous in cells; host or cells: OCI-AML2
The assay is described as follows: Target engagement, in situ (cell), OCI-AML2. Type of assay: cell-based. As to conditions: OCI-AML2 cells, read-out: OCI-AML2 WRN C727 TE50 in situ (cell). The procedure: Cells or cell lysates were treated with a dose response of compound followed by probe treatment, which labels solvent exposed cysteines. Proteins were enzymatically digested with trypsin and probe-labelled peptides were enriched with streptavidin. Isolated peptides were then separated using reversed-phase liquid chromatography on a C18 column (Dionex Ultimated 3000 nano-LC, Thermo). Peptides were analyzed by parallel reaction monitoring mass spectrometry (Exploris 120, Thermo).
Target engagement (%) is calculated relative to DMSO treated control samples.

Assay [2] has as its target T1, WRN C727. The assay can be described thus: Target engagement, in vitro (lysate), OCI-AML2. The assay is classed as binding. As to conditions: read-out: OCI-AML2 WRN C727 TE50 in vitro (lysate). In a few lines: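 Percent engagement of WRN C727 is expressed against DMSO-treated samples, measured by PRM mass spectrometry of streptavidin-enriched, probe-tagged tryptic peptides. Compound dose responses preceded probe labelling of solvent-exposed cysteines, in either living OCI-AML2 cells or their lysates.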

The next assay deals with SW480 cells. The assay is described as follows: Cell growth assay (CellTiter-Glo 2.0), SW480 MSS cell line. Conditions: Homo sapiens, SW480, 120 h, read-out: Cell Growth Inhibition GI50 SW480.
A further assay relates to HCT 116 cells. The assay can be described thus: Cell growth assay (CellTiter-Glo 2.0), HCT 116 MSI-H cell line. Conditions: Homo sapiens, HCT-116, 120 h, read-out: Cell Growth Inhibition GI50 HCT-116.
Assay [3] has as its target hWRN(519-1227)_C-H3CV-GFP-10His (Homo sapiens, UniProt Q14191). The assay is described as follows: Helicase Assay for WRN Inhibition (ATP-dependent, fluorescence based).
[4] abbreviates: WRN Helicase IC50, 30 min preincubation with ATP, 30 min reaction.

Where two headings read alike, the source gives them in different places. A value given as a limit tells only on which side of the number the result lay.

Chain of hWRN(519-1227)_C-H3CV-GFP-10His (Q14191 519-1227): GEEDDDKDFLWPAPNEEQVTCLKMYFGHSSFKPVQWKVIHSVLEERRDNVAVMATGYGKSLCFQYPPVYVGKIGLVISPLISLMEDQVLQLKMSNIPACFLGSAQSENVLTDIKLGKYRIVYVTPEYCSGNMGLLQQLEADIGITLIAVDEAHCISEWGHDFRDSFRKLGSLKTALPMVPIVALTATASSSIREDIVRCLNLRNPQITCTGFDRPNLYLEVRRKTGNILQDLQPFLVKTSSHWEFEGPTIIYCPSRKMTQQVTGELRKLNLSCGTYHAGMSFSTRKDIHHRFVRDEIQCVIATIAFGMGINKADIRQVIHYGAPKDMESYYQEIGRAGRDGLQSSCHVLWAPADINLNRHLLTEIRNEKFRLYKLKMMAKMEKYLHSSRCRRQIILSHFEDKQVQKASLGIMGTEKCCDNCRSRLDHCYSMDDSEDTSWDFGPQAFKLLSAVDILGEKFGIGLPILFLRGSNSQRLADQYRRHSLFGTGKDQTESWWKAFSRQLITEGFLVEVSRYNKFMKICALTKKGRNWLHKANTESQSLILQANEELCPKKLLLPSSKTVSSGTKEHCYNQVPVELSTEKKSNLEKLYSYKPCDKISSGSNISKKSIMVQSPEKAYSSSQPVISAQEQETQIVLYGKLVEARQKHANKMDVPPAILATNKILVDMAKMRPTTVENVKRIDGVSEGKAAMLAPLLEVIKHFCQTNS
T1 sequence (Q14191 whole entry): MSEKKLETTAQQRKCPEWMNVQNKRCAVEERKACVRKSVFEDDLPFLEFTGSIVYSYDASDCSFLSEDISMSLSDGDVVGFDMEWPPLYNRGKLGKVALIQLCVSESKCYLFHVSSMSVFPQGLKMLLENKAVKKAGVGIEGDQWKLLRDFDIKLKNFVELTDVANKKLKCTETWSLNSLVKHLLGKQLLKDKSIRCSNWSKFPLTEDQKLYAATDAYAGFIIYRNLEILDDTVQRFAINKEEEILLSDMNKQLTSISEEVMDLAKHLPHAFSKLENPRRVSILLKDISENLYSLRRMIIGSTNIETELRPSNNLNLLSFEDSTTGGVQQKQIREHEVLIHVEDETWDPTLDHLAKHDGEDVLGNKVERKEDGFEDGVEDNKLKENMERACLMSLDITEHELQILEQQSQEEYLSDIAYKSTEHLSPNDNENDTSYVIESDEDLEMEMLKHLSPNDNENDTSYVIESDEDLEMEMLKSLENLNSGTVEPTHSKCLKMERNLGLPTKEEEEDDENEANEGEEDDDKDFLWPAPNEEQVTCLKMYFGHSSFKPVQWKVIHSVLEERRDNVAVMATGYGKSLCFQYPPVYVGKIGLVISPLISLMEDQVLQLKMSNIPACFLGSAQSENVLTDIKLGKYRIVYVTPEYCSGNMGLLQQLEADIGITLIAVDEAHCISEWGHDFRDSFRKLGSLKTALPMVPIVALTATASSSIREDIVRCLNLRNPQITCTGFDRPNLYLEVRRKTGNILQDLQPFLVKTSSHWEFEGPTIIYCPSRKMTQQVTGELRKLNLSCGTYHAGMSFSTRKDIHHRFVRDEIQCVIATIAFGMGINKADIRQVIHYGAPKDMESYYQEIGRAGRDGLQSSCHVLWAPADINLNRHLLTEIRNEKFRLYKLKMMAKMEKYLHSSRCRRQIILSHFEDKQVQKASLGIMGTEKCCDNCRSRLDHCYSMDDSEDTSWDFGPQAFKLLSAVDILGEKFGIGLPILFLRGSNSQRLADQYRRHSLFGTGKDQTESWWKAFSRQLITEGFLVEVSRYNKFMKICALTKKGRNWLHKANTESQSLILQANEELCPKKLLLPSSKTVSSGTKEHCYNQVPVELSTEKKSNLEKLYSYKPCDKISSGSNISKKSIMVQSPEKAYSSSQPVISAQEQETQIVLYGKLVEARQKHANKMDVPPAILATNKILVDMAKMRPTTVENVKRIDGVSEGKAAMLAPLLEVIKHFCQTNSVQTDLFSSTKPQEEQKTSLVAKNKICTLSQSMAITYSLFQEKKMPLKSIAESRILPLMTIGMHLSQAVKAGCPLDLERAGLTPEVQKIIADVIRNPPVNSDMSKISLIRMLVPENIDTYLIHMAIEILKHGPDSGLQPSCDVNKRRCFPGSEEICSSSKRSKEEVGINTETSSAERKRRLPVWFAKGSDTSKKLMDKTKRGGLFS

Broadly, the GI50 is the concentration at which growth is held to half of that of the control. Take `C[C@@H](/C=C/S(C)(=O)=O)NC(=O)c1cnc(C2CCCC2)nc1Oc1cc(F)cc(F)c1` [Example 116, (S,E)-2-cyclopentyl-4-(3,5-difluorophenoxy)-N-(4-(methylsulfonyl)but-3-en-2-yl)pyrimidine-5-carboxamide]: the IC50 at WRN C727 [1] was 1500 nM; at WRN C727 [2] it was 22300 nM; in assay [3] (setting [4]), 2200 nM. Moreover, the GI50 in the assay on SW480 cells is above 10000 nM; in the assay with HCT 116 cells, 2500 nM.
`CC[C@@H](/C=C/S(C)(=O)=O)NC(=O)c1cnc(C2CCCC2)nc1Oc1ccccc1` [Example 6, (S,E)-2-cyclopentyl-N-(1-(methylsulfonyl)pent-1-en-3-yl)-4-phenoxypyrimidine-5-carboxamide]: the IC50 at WRN C727 [1] was 200 nM; at WRN C727 [2], 5000 nM; in assay [3] (setting [4]), 439 nM. In addition, the figures for the GI50 in the assay with SW480 cells and in the assay with HCT 116 cells were 11800 nM and 214 nM, respectively.
The like results for `CS(=O)(=O)/C=C/[C@@H](NC(=O)c1cnc(C(F)(F)C2CC2)nc1Oc1ccccc1)C1CC1` [Example 224, (S,E)-N-(1-cyclopropyl-3-(methylsulfonyl)allyl)-2-(cyclopropyldifluoromethyl)-4-phenoxypyrimidine-5-carboxamide] were, in that order, 8.75 nM, 93.2 nM, 48.3 nM, 13600 nM and 17 nM.
On the same counts, the results for `CC(C)(C)c1ncc(C(=O)NC/C=C/S(C)(=O)=O)c(Oc2ccccc2)n1` [Example 56, (E)-2-(tert-butyl)-N-(3-(methylsulfonyl)allyl)-4-phenoxypyrimidine-5-carboxamide] are 430 nM, 4900 nM, 842 nM, 10600 nM and 378 nM.
On the same counts, the results for `CS(=O)(=O)/C=C/CNC(=O)c1cnc(C2CC2)nc1Oc1ccccc1` [Example 17, (E)-2-cyclopropyl-N-(3-(methylsulfonyl)allyl)-4-phenoxypyrimidine-5-carboxamide] are 5990 nM, 80000 nM, 7620 nM, above 10000 nM and 6300 nM.
In the case of `CC(C)(C)c1ncc(C(=O)N2CC(=CS(C)(=O)=O)C2)c(Oc2ccccc2)n1` [Example 189, (2-(tert-butyl)-4-phenoxypyrimidin-5-yl)(3-((methylsulfonyl)methylene)azetidin-1-yl)methanone], the results for the IC50 (at WRN C727 [1]; on WRN C727 [2]; in assay [3]) were 100 nM, 640 nM and 241 nM, respectively. Besides, the figures for the GI50 in the assay with SW480 cells and in the assay with HCT 116 cells were above 13800 nM and 102 nM, respectively.
Consider `C[C@@H](/C=C/S(C)(=O)=O)NC(=O)c1cnc(NC2CCCC2)nc1Oc1ccccc1` [Example 164, (S,E)-2-(cyclopentylamino)-N-(4-(methylsulfonyl)but-3-en-2-yl)-4-phenoxypyrimidine-5-carboxamide], for which the IC50 is 21400 nM on WRN C727 [1], above 100000 nM on WRN C727 [2] and 12000 nM in assay [3] (setting [4]). Also, the GI50 with SW480 cells was above 10000 nM; with HCT 116 cells, 7100 nM.
As to `CS(=O)(=O)C=C1CN(C(=O)c2cnc(C3CC3)nc2Oc2ccccc2)C1` [Example 188, (2-cyclopropyl-4-phenoxypyrimidin-5-yl)(3-((methylsulfonyl)methylene)azetidin-1-yl)methanone], the IC50 turned out to be 490 nM on WRN C727 [1] and 1100 nM in assay [3]. Besides, the figures for the GI50 in the assay on SW480 cells and in the assay on HCT 116 cells were above 15200 nM and 391 nM, respectively.
`C[C@@H](/C=C/S(C)(=O)=O)NC(=O)c1cnc(C2CC2)nc1OC1CCCC1` [Example 144, (S,E)-4-(cyclopentyloxy)-2-cyclopropyl-N-(4-(methylsulfonyl)but-3-en-2-yl)pyrimidine-5-carboxamide]: the results for the IC50 (at WRN C727 [1]; at WRN C727 [2]; in assay [3] (setting [4])) were 800 nM, 20000 nM and 1890 nM, respectively. Also, the results for the GI50 with SW480 cells and in the assay on HCT 116 cells were above 16000 nM and 693 nM, respectively.
Take `N#CC=C1CN(C(=O)c2cnc(C3CC3)nc2Oc2ccccc2)C1` [Example 264, 2-(1-(2-cyclopropyl-4-phenoxypyrimidine-5-carbonyl)azetidin-3-ylidene)acetonitrile]: the IC50 was determined as 6650 nM at WRN C727 [1], 16300 nM on WRN C727 [2] and 2300 nM in assay [3]. For the same compound, the GI50 in the assay with SW480 cells came out at 8100 nM; in the assay on HCT 116 cells, 3800 nM.
`COCC(/C=C/S(C)(=O)=O)NC(=O)c1cnc(C(F)(F)C2CC2)nc1Oc1ccccc1` (stereo in doubt) [Example 226, (S,E)-2-(cyclopropyldifluoromethyl)-N-(1-methoxy-4-(methylsulfonyl)but-3-en-2-yl)-4-phenoxypyrimidine-5-carboxamide]: the IC50 on WRN C727 [1] was determined as 16 nM; on WRN C727 [2], 116 nM; in assay [3] (setting [4]), 92.9 nM. The GI50 with SW480 cells turned out to be 27900 nM; with HCT 116 cells it was 23 nM.
Turning to `C[C@@H](/C=C/S(C)(=O)=O)NC(=O)c1cnc(C(C)(C)C)nc1OC1CCCCC1` [Example 154, (S,E)-2-(tert-butyl)-4-(cyclohexyloxy)-N-(4-(methylsulfonyl)but-3-en-2-yl)pyrimidine-5-carboxamide], the IC50 at WRN C727 [1] came to 140 nM; at WRN C727 [2], 1330 nM; in assay [3] (setting [4]), 330 nM. The GI50 stood at 8970 nM in the assay on SW480 cells and 222 nM in the assay with HCT 116 cells.
As to `CS(=O)(=O)/C=C/[C@@H](NC(=O)c1cnc(C(F)(F)C2CC2)nc1Oc1ccccc1)C1CCC1` [Example 225, (S,E)-N-(1-cyclobutyl-3-(methylsulfonyl)allyl)-2-(cyclopropyldifluoromethyl)-4-phenoxypyrimidine-5-carboxamide], the values for the IC50 (at WRN C727 [1]; on WRN C727 [2]; in assay [3] (setting [4])) were 16 nM, 119 nM and 54.4 nM, respectively. Also, the values for the GI50 in the assay on SW480 cells and with HCT 116 cells were 18000 nM and 17 nM, respectively.
The like results for `C[C@@H](/C=C/S(C)(=O)=O)NC(=O)c1cnc(C(C)(C)C)nc1OC1CCCC1` [Example 153, (S,E)-2-(tert-butyl)-4-(cyclopentyloxy)-N-(4-(methylsulfonyl)but-3-en-2-yl)pyrimidine-5-carboxamide] were, in that order, 160 nM, 1880 nM, 500 nM, above 10000 nM and 165 nM.
As to `C[C@@H](/C=C/S(C)(=O)=O)NC(=O)c1cnc(C2CCC2)nc1Oc1ccccc1` [Example 44, (S,E)-2-cyclobutyl-N-(4-(methylsulfonyl)but-3-en-2-yl)-4-phenoxypyrimidine-5-carboxamide], the IC50 was 260 nM at WRN C727 [1], 1180 nM on WRN C727 [2] and 910 nM in assay [3] (setting [4]). In addition, the GI50 in the assay on SW480 cells is above 10000 nM; in the assay on HCT 116 cells it was 270 nM.
On the same counts, the results for `CS(=O)(=O)/C=C/[C@@H](NC(=O)c1cnc(C(F)(F)C(F)(F)F)nc1Oc1ccccc1)C1CC1` [Example 84, (S,E)-N-(1-cyclopropyl-3-(methylsulfonyl)allyl)-2-(perfluoroethyl)-4-phenoxypyrimidine-5-carboxamide] are 16 nM, 200 nM, 80 nM, 8780 nM and 51.1 nM.
As to `C[C@@H](/C=C/S(C)(=O)=O)NC(=O)c1cnc(C(C)(C)C)cc1Oc1ccccc1` [Example 253, (S,E)-6-(tert-butyl)-N-(4-(methylsulfonyl)but-3-en-2-yl)-4-phenoxynicotinamide], the IC50 on WRN C727 [1] was 200 nM; in assay [3] (setting [4]), 940 nM. The GI50 is above 10000 nM with SW480 cells and 240 nM in the assay on HCT 116 cells.

Source of the values: patent US20250188040A1, “PHARMACEUTICAL COMPOSITIONS COMPRISING WRN HELICASE INHIBITORS” (Vividion Therapeutics, Inc., priority 2022, published 2025).
